# Experimental data published in patent US12171758B1, “Crystalline salt forms of kappa opioid receptor antagonist and products and methods related thereto” (Neumora Therapeutics, Inc., priority 2023, dated 2024).
# “And” between values parts separate entries of the source, which are not always exact repeats. Equal values may be shown once.
# Tests used:
# Assay type in all cases: physicochemical
# [1] = Log D7.6 shake-flask (octanol/phosphate buffer) and Log P calculation; conditions: pH 7.6
# Description: The actual weight was recorded. The solid was dissolved and diluted to volume with ACN:H2O (1:1, v/v). Stock solutions were prepared in duplicate. The stock solutions were diluted by 50 times by transferring 1 mL of stock solution into 50-mL volumetric flask and then diluted to volume with ACN/water ACN:H2O (1:1, v/v). The 1/50 solutions were used to collect spectra with full wave scanning from 190 nm to 700 nm and absorbance at 235 nm, 270 nm, 290 nm and 365 nm using spectrophotometer with the background subtracted. MEC was then calculated by the following equation: MEC(L mol−1 cm−1)=Absorbance/conc.(mol/L)/Cell length(cm) Log D7.6 Measurements Preparation of Solvents • 0.1 M KH2PO4: 1.36 g of solid KH2PO4 was added into a 100-mL volumetric flask, the solid was dissolved with ultrapure water and diluted to volume. • 0.1 M K2HPO4: 1.73 g of solid K2HPO4 was added into a 100-mL volumetric flask, the solid was dissolved with ultrapure water and diluted to volume. • 100 mL of 0.1 M K2HPO4 solution and 30 mL of 0.1 M KH2PO4 was transferred to a 250-mL beaker and mixed. […] Sample Analysis and Data Calculation • After phase separated, the phases were physically separated, and the concentrations of compounds in each phase were determined by HPLC using the HPLC conditions and parameters in Table 5. • Distribution coefficient, referred to as Dow, was calculated as the concentration of the test compound (both ionized and unionized) in the octanol phase divided by the corresponding concentration in the aqueous phase. Log D7.6 was calculated as an average of the log 10 of Dow based on three runs. […] The mixture was then diluted to volume with purified water, mixed, and pH was measured with a pH meter. • 50 mM citrate pH 4.0 buffer: 65.3 mg of citric acid (monohydrate) and 56.9 mg of sodium citrate (dihydrate) were transferred to a 10-mL volumetric flask, purified water was added to obtain the target volume, and pH was adjust to 4.0. […]
# [2] = pKa measurement (Sirius T3, Yasuda-Shedlovsky extrapolation); conditions: Sirius T3, MeOH and KCl solution, pH 2 to 12, Yasuda-Shedlovsky extrapolation
# Source text: pKa Measurements pKa measurements were taken using a Sirius T3 instrument in a solvent (MeOH and KCl solution). The process ran from low to high pH (2 to 12). MEC Measurements
# [3] = Solubility measurement in organic solvents at 25° C. for 24 hours; conditions: for solubility at 24 h: organic solvent or mixture, thermodynamic from solid; for Final form of residual solids: XRPD
# [4] = Molar extinction coefficient (MEC) to evaluate photo reactivity; conditions: for MEC Ave.: average of duplicate
# Description: The actual weight was recorded. The solid was dissolved and diluted to volume with ACN:H2O (1:1, v/v). Stock solutions were prepared in duplicate. The stock solutions were diluted by 50 times by transferring 1 mL of stock solution into 50-mL volumetric flask and then diluted to volume with ACN/water ACN:H2O (1:1, v/v). The 1/50 solutions were used to collect spectra with full wave scanning from 190 nm to 700 nm and absorbance at 235 nm, 270 nm, 290 nm and 365 nm using spectrophotometer with the background subtracted. MEC was then calculated by the following equation: MEC(L mol−1 cm−1)=Absorbance/conc.(mol/L)/Cell length(cm) Log D7.6 Measurements Preparation of Solvents • 0.1 M KH2PO4: 1.36 g of solid KH2PO4 was added into a 100-mL volumetric flask, the solid was dissolved with ultrapure water and diluted to volume. • 0.1 M K2HPO4: 1.73 g of solid K2HPO4 was added into a 100-mL volumetric flask, the solid was dissolved with ultrapure water and diluted to volume. • 100 mL of 0.1 M K2HPO4 solution and 30 mL of 0.1 M KH2PO4 was transferred to a 250-mL beaker and mixed. Then, pH was adjusted 7.4 with the KH2PO4 solution. • Octanol and aqueous buffer were pre-equilibrated by adding 10 mL octanol and 10 mL aqueous buffer into a 20-mL glass vial and agitating the vial for 24 hrs. The mutually saturated octanol and aqueous buffer were then separated after phase separation. Sample Set up • Approximately 1.0 mg solids were weighted into a 3-mL glass vial with 1.0 mL of octanol inside, and dissolution was accelerated by ultrasonication. Then, 1.0 mL of complementary aqueous buffer was added into the vial. Samples were prepared in triplicate. The glass vial was sealed and mixed on a rotary mixer at 25° C. for 24 hrs. Sample Analysis and Data Calculation • After phase separated, the phases were physically separated, and the concentrations of compounds in each phase were determined by HPLC using the HPLC conditions and parameters in Table 5. • Distribution coefficient, referred to as Dow, was calculated as the concentration of the test compound (both ionized and unionized) in the octanol phase divided by the corresponding concentration in the aqueous phase. Log D7.6 was calculated as an average of the log 10 of Dow based on three runs. Solubility/Stability Measurements in pH Buffers Stock Solution Preparation • 0.2 M Hydrochloric Acid: 166 μL of 12 M hydrochloric acid is added into a 10-mL volumetric flask, and the resulting mixture was diluted to volume with purified water and mixed. • 0.2 M Sodium Hydroxide: 80.0 mg of sodium hydroxide was weighted into a 10-mL volumetric flask. The solid was dissolved with volume of purified water, diluted to volume and mixed. • 0.2 M Potassium Chloride: 148.8 mg of potassium chloride was weighted into a 10-mL volumetric flask. The solid was dissolved with volume of purified water, diluted to volume and mixed. • 0.2 M Potassium Phosphate, Monobasic: 271.5 mg of monobasic potassium phosphate (KH2PO4) was weighed into a 10-mL volumetric flask. The solid was dissolved with appropriate volume of purified water, diluted to volume and mixed. • 0.2 M Boric Acid and Potassium Chloride: 124.3 mg of boric acid (H3BO3) and 149.5 mg of potassium chloride (KCl) were mixed into a 10-mL volumetric flask. The solid was dissolved with appropriate volume of purified water, diluted to volume and mixed. pH Buffers Preparation • 50 mM KCl pH 2.0 buffer: 2.5 mL of 0.2 M potassium chloride solution and 0.65 mL of 0.2 M hydrochloric acid solution were transferred to a 10-mL volumetric flask. Purified water is added to the target volume, and pH is adjusted to 2.0. The mixture was then diluted to volume with purified water, mixed, and pH was measured with a pH meter. • 50 mM citrate pH 4.0 buffer: 65.3 mg of citric acid (monohydrate) and 56.9 mg of sodium citrate (dihydrate) were transferred to a 10-mL volumetric flask, purified water was added to obtain the target volume, and pH was adjust to 4.0. […]
structure (smiles),measurement,setting,value
"CCc1cc(F)c2nc(N3CCC(NC4CCOCC4)CC3)c(-c3nc(C)no3)c(C)c2c1.Cl [HCl salt Type A, 1-(6-ethyl-8-fluoro-4-methyl-3-(3-methyl-1,2,4-oxadiazol-5-yl)quinolin-2-yl)-N-(tetrahydro-2H-pyran-4-yl)piperidin-4-amine hydrochloride]",Average of Log D7.6,[1]; 24 h,2.87
same,logP,[1]; calculated: Log D7.6 + lg[1+10^(pKa-pH)],4
same,logD,[1],2.87
same,pKa,[2],8.68
same,solubility at 24 h,"[3]; 25 °C, nonpolar solvents (hexane, heptane and toluene)",< 0.088 mg/mL
same,solubility at 24 h,"[3]; 25 °C, polar solvents (DMSO and MeOH)",> 24.9 mg/mL
same,Final form of residual solids,"[3]; Acetone, 24 hrs",HCl salt Type A
same,Final form of residual solids,"[3]; DMSO, 24 hrs, hydrochloride",Amorphous form
same,Final form of residual solids,"[3]; DMSO, 24 hrs, listed as HCl Salt Type A, hydrochloride",Amorphons
same,Final form of residual solids,"[3]; EtOAc (printed EtQAc), 24 hrs",HCl salt Type A
same,Final form of residual solids,"[3]; EtOH, 24 hrs",HCl salt Type A
same,Final form of residual solids,"[3]; Heptane, 24 hrs",HCl salt Type A
same,Final form of residual solids,"[3]; Hexane, 24 hrs",HCl salt Type A
same,Final form of residual solids,"[3]; IPA, 24 hrs",HCl salt Type A
same,Final form of residual solids,"[3]; MeOH, 24 hrs",HCl salt Type A
same,Final form of residual solids,"[3]; Toluene, 24 hrs",HCl salt Type A
same,solubility at 24 h,"[3]; ethanol, EtOH, 25° C., 24 hrs",3.5 mg/mL
same,solubility at 24 h,"[3]; methanol, MeOH, 25° C., 24 hrs",24.9 mg/mL
same,solubility at 24 h,"[3]; Acetone, 25° C., 24 hrs",0.091 mg/mL
same,solubility at 24 h,"[3]; DMSO, 25° C., 24 hrs",33.5 mg/mL
same,solubility at 24 h,"[3]; EtOAc (printed EtQAc), 25° C., 24 hrs",0.011 mg/mL
same,solubility at 24 h,"[3]; Heptane, 25° C., 24 hrs",0.0008 mg/mL
same,solubility at 24 h,"[3]; Hexane, 25° C., 24 hrs",0.0004 mg/mL
same,solubility at 24 h,"[3]; Toluene, 25° C., 24 hrs",0.0088 mg/mL
same,form change,[3]; organic solvents other than DMSO,No form change
same,MEC Ave.,[4]; 235 nm,26184.9 L/mol/cm
same,MEC,"[4]; 235 nm, single solution, ACN:H2O (1:1, v/v), hydrochloride",26246.5 L/mol/cm and 26123.4 L/mol/cm
same,MEC Ave.,[4]; 270 nm,29997.1 L/mol/cm
same,MEC,"[4]; 270 nm, single solution, ACN:H2O (1:1, v/v), hydrochloride",30005.4 L/mol/cm and 29988.9 L/mol/cm
same,MEC Ave.,[4]; 290 nm,13591.0 L/mol/cm
same,MEC,"[4]; 290 nm, single solution, ACN:H2O (1:1, v/v), hydrochloride",13615.7 L/mol/cm and 13566.4 L/mol/cm
same,MEC Ave.,[4]; 365 nm,2162.6 L/mol/cm
same,MEC,"[4]; 365 nm, single solution, ACN:H2O (1:1, v/v), hydrochloride",2207.7 L/mol/cm and 2117.4 L/mol/cm
same,MEC,[4]; at all selected wavelength,> 1000 L/mol/cm
